According to PubChem BioAssay AID624491 (Broad Institute, 2012):

Test system: D54 ERlucT glycosylation luciferase reporter, luminescence, 24 h
Test: blockers of NLG process in reporter cells – D54 ERlucT cells, luminescence, cherry-picks, dose response (AID 624491);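 note: signal gain reflects blocked N-linked glycosylation of a luciferase reporter; actives raise luciferase signal so AC26 marks activators of the reporter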

| Compound | AC26 [nM] |
| --- | --- |
| C[C@@]12C(=O)Nc3cc(Cl)ccc3C(=O)N1[C@H]1c3cc(Cl)ccc3OC[C@@H]1[C@@H]2c1ccccc1 | 4040 |
| CCN(CC)S(=O)(=O)c1cccc(NC(=O)CN2C(=O)NC3(CCC(C)CC3)C2=O)c1 (stereo unspecified) | 876 |
| Cc1ccc(S(=O)(=O)Cc2ccc(C(=O)N3CCN(c4cccc(C)c4C)CC3)o2)cc1 | 3450 |
| O=C(c1ccc2ncsc2c1)N1CCN(c2cccc(C(F)(F)F)c2)CC1 | 4190 |
| COc1cccc(/C=C2\SC(=S)N(CCC(=O)N3CCCCC3)C2=O)c1 | 5770 |
| CCc1cccc(NC(=O)c2cc(S(=O)(=O)N(C)C)ccc2N2CCCC2)c1 | 646 |
| CCOC(=O)C(C)Oc1cccc2c(=O)n(CC(=O)NCc3ccco3)ccc12 (stereo unspecified) | 1380 |
| COc1ccc(S(=O)(=O)N2CCCCC2)cc1NC(=O)c1[nH]c(C)c(C(C)=O)c1C | 1630 |
| Cc1ccc(C(=O)N2CCN(Cc3ccccc3)CC2)cc1S(=O)(=O)N1CCOCC1 | 1670 |
| COc1cc(OC)c(C2=NOC(C(=O)NCc3cccs3)C2)cc1Cl (stereo unspecified) | 5250 |
| CC(=O)Nc1ccc(C(=O)N/N=C/c2ccccc2OCc2ccccc2)cc1 | 1490 |
| O=C(CN1C(=O)NC2(CCCCCC2)C1=O)Nc1ccc2c(c1)CCC2 | 1970 |
| CCC(=NCCc1c(C)[nH]c2ccc(OC(F)(F)F)cc12)C1=C(O)CC(c2ccccc2)CC1=O (stereo unspecified) | 817 |
| CCOC(=O)C1=CC[C@@H](c2ccncc2)N(S(=O)(=O)c2ccc(C)cc2)C1 | 12100 |
| Cc1cccc(Nc2nc(N)nc(-c3oc4ccccc4c3C)n2)c1 | 7050 |
| O=C1OCC2=C1C(c1ccc3c(c1)OCO3)c1cc3c(cc1O2)OCO3 (stereo unspecified) | 661 |
| O=C(NCc1cccs1)C1CC(c2ccc(Cl)c(Cl)c2)=NO1 (stereo unspecified) | 5400 |
| CC=Cc1cc2c(c(=O)o1)C(=O)C(O)C(C)O2 (stereo unspecified) | 5300 |
| Cc1nc([N+](=O)[O-])c(Br)n1Cc1ccc(Cl)c(Cl)c1 | 885 |
| COc1cc(OC)cc(C(=O)c2c(C)c(C#N)c3ccccn23)c1 | 1220 |
| O=C(c1cn(Cc2ccccc2)nc1-c1ccccc1)N1CCN(c2ccccn2)CC1 | 999 |
| COc1ccc(/C=N/NC(=O)c2c(C)nc3ccc(Br)cn23)cc1OC | 2520 |
| Nc1c(N(Cc2ccccc2)C(=O)COc2ccc([N+](=O)[O-])cc2)c(=O)[nH]c(=O)n1Cc1ccccc1 | 389 |

| Compound | AC26 [nM] |
| --- | --- |
| Cc1cc(Nc2cc(Cl)cc(Cl)c2)nc(N)n1 | 1280 |
| CC1CCC2(CC1)NC(=O)N(CC(=O)Nc1ccc3c(c1)CCC3)C2=O (stereo unspecified) | 826 |
| COC(=O)c1c(C)[nH]c(C(=O)/C=C/c2cccc(Cl)c2)c1C | 2410 |
| CCCOc1ccccc1C1CC(=O)NC2=C1C(=O)CCC2 (stereo unspecified) | 2250 |
| CN(C)CCc1cc2c(c3c1ccc1ccccc13)OCO2 | 5320 |
| COc1cc(C(=O)Nc2ccc3c(c2)CCN3C(C)=O)cc(OC)c1OC | 1240 |
| CC1(C(=O)NCc2ccc(F)c(F)c2)Cc2c(-c3ccc4c(c3)OCO4)ccnc2O1 (stereo unspecified) | 6730 |
| COc1ccc(C(=O)CC(SCC(NC(C)=O)C(=O)O)c2ccc(Cl)cc2)cc1OC (stereo unspecified) | 1440 |
| COc1ccc(Nc2nc(N)c(C(=O)c3ccc(OC)cc3)s2)cc1 | 483 |
| Cc1ccc(N2C(=O)Nc3ccccc3C2(O)C(=O)N2CCN(c3ccccn3)CC2)cc1C (stereo unspecified) | 330 |
| CN1CCN(C(=O)/C=C/c2ccc([N+](=O)[O-])o2)CC1 | 3930 |
| CC(=O)c1cccc(-c2ccnc3c2CC(C(=O)NCc2cccs2)O3)c1 (stereo unspecified) | 1070 |
| COc1cc(-c2noc(C)c2/C=C/c2ccc(OC(C)=O)cc2)cc(OC)c1OC | 494 |
| Cc1cccc2c1NC(=O)/C2=C\C(=O)c1cccs1 | 4260 |
| C=CCOc1ccc(/C=C2\SC(N3CCCCC3)=NC2=O)cc1 | 5420 |
| Cc1ccccc1NC(=O)Cn1nnc(C(=O)NCc2ccco2)c1N | 1770 |
| Cc1c(Cl)cccc1N=Cc1ccc([N+](=O)[O-])s1 | 1870 |
| O=C1Nc2ccccc2/C1=C/c1nc2ccccc2c(=O)n1-c1ccc(O)cc1 | 11500 |
| COc1ccc(NC(=O)c2cc3c(=O)n(C)c4ccccc4c3n2C)cc1OC | 2940 |
| CCOc1cc(C)nc(NCc2ccccc2)n1 | 14300 |
| O=C1Cc2c([nH]c3ccc(Br)cc23)-c2ccccc2N1 | 351 |
| c1ccc2c(c1)oc1c(-c3ccc4nccn4c3)cccc12 | 8270 |
| CSc1cccc(NC(=O)CCCOc2cc(=O)n(C)c3ccccc23)c1 | 4940 |

| Compound | AC26 [nM] |
| --- | --- |
| CSc1ncnc2c1ncn2CCCN[C@H](C)c1cccc2ccccc12 | 679 |
| COc1ccc(S(=O)(=O)Nc2ccc3c(c2)n(C)c(=O)n3C)cc1C | 9910 |
| CCc1nn2c(NCCCO)cc(C)nc2c1-c1ccc(F)cc1 | 1630 |
| CCN(CC)CCCNc1nc2ccccc2c2nc(-c3ccncc3)nn12 | 2320 |
| Cc1ccc(Oc2ccc(S(=O)(=O)N3CCOCC3)cc2C(N)=O)c(-n2nc3ccccc3n2)c1 | 2770 |
| CC1CCCCN1C(=O)NC12CC3CC(CC(C3)C1)C2 (stereo unspecified) | 4170 |
| COc1ccc2c(c1)C(=O)N1[C@H]3c4cc(Br)ccc4OC[C@@H]3[C@H](c3ccccc3)[C@]1(C)C(=O)N2 | 851 |
| COCCCNC(=O)Cc1c(C)c2c(cc(C)c3c(C(C)(C)C)coc32)oc1=O | 1510 |
| c1ccc(Cc2nnc(Sc3ccccc3)c3ccccc23)cc1 | 5170 |
| CCCc1cc(C(=O)N/N=C/c2ccc(C)o2)c2ccccc2n1 | 1040 |
| COc1cc(C)c2sc3ccccc3c(=O)c2c1NCCN(C)C | 468 |
| O=C(NCC1CCCO1)c1cc(-c2ccccc2)on1 (stereo unspecified) | 6450 |
| Cn1c(=O)n(C)c2cc(NC(=O)CCl)ccc21 | 2090 |
| NC(=O)COc1ccc(C(=O)/C=C2/C(=O)Nc3ccccc32)cc1 | 3180 |
| COc1cc2c(cc1OC)C(c1cc(Br)ccc1F)N(C(=O)CCl)CC2 (stereo unspecified) | 2280 |
| CCOC(=O)c1[nH]c2c(c1-c1ccccc1)C(=O)CC(c1ccccc1)C2 (stereo unspecified) | 1480 |
| Cc1cc(C)c2sc(NC(=O)c3ccc([N+](=O)[O-])o3)nc2c1 | 6640 |
| Cc1cc(NC(=O)CN2C(=O)NC3(CCCCCC3)C2=O)ccc1Br | 1570 |
| CC(C)(C)S(=O)(=O)N1C[C@@H]2CC/C=C\C/C(c3ccccc3)=C\2[C@H]1CCO | 1050 |
| Cc1cc(C)cc(NC(=O)CCn2c(=O)c3cccn3c3ccccc32)c1 | 4950 |
| COc1cc(/C=N/NC(=O)c2ccc(CSc3nc4ccccc4[nH]3)cc2)cc(OC)c1OC | 3980 |
| Cc1cc(=O)oc2cc(OCC(=O)N3c4ccccc4CC3C)ccc12 (stereo unspecified) | 1090 |
| CCOc1cc(CNc2ccc3cn[nH]c3c2)ccc1OC | 1550 |

| Compound | AC26 [nM] |
| --- | --- |
| CN1CCN(C(c2ccc(Cl)cc2)c2cc(Cl)c3cccnc3c2O)CC1 (stereo unspecified) | 4040 |
| Nc1c(N(CCC2=CCCCC2)C(=O)COc2ccc(F)cc2Cl)c(=O)[nH]c(=O)n1Cc1ccccc1 | 1070 |
| CN(C)c1ccc(CNC(=O)C2(C)Cc3c(-c4ccc5c(c4)OCO5)ccnc3O2)cc1 (stereo unspecified) | 2630 |
| COc1cc2c(cc1OC)C(c1ccccc1)N(C(=O)c1ccco1)CC2 (stereo unspecified) | 315 |
| O=C(Nc1ccc(-c2nc3cc(NC(=O)c4cccs4)ccc3o2)cc1)c1cccs1 | 4310 |
| CCc1ccc(N2CC(C(=O)Nc3ccccc3N3CCCC3)CC2=O)cc1 (stereo unspecified) | 5370 |
| CCOC(=O)c1[nH]c(C)c(C(=O)Nc2ccc(C)c(F)c2)c1C | 5420 |
| Cc1ccc(-c2nc(C(=O)NCCCN(C)C)cc3c2[nH]c2ccccc23)cc1 | 4300 |
| CC1CN(C(=O)c2ccc(COc3ccc4ccccc4c3)o2)CC(C)O1 (stereo unspecified) | 11200 |
| COc1cc2c(cc1OC)C(c1ccccc1)N(C(=O)c1ccccc1F)CC2 (stereo unspecified) | 1100 |
| Cc1cc(NC(=O)NC(=O)c2ccccc2NC(=O)C(C)N)ccc1Oc1ncc(Br)cn1 (stereo unspecified) | 1060 |
| CCOc1ccc(S(=O)(=O)NCc2ccccn2)cc1NC(=O)c1ccccc1F | 593 |
| COCCN(C(=O)CCl)C(C(=O)NC1CCCCC1)c1ccccc1C (stereo unspecified) | 3340 |
| COc1cc2ccccc2cc1C(=O)N/N=C/c1cccs1 | 232 |
| CC(C)(C)c1ccc(OCC(=O)Nc2ccncc2)c(Br)c1 | 4130 |
| O=C(Nc1ccc2oc(-c3cccnc3)nc2c1)c1ccc([N+](=O)[O-])o1 | 1130 |
| O=C(CCN1C(=O)/C(=C/c2cccs2)SC1=S)N1CCCCC1 | 1220 |
| Cc1nnc2c(NC3CCCC3)nc3ccccc3n12 | 5060 |
| COc1cccc(Sc2ccccc2/C=N/NC(N)=O)c1 | 8340 |
| Cc1cc(=O)[nH]c(N/N=C/c2cc(C)n(CC(F)(F)F)c2C)n1 | 47.6 |
| COc1ccc(Nc2cc(C)nc3ccc(OC)cc23)cc1 | 1830 |
| Cc1c(C(=O)N/N=C/c2cccnc2)sc(N)c1C#N | 2000 |
| COc1cc(C(=O)NC2CCN(C)CC2)ccc1Nc1ncc2c(n1)N(C1CCCCC1)CCC(=O)N2C | 11.3 |

| Compound | AC26 [nM] |
| --- | --- |
| COc1ccc(NC(=O)c2oc3ccccc3c2NC(=O)c2ccco2)cc1 | 11700 |
| CN(C)CCN1C(=O)c2cccc3cc([N+](=O)[O-])cc(c23)C1=O | 73.5 |
| COc1cccc(C(NC(C)=O)c2nc(-c3ccc(F)cc3OC)cs2)c1 (stereo unspecified) | 105 |
| CCn1c2ccccc2c2cc(/C=N/NC(=O)c3ccc(O)cc3)ccc21 | 2160 |
| Cc1cc2oc(C(=O)Nc3c(C)n(C)n(-c4ccccc4)c3=O)c(C)c2cc1Cl | 781 |
| CC(=O)c1c(C)[nH]c(C(=O)Nc2nccs2)c1C | 2200 |
| O=C(Nc1cccc(-n2cnnn2)c1)c1cc(Cl)ccc1Cl | 4570 |
| Cc1ccc(NC2=NC3(CCCC3)N=C(N)N2)c(C)c1 | 4230 |
| COc1ccc(C(=O)/C=C/c2ccc(OC(=O)c3cc(OC)c(OC)c(OC)c3)cc2)cc1 | 3740 |
| O=C(N/N=C/c1c[nH]c2ccccc12)C1COc2ccccc2O1 (stereo unspecified) | 1310 |
| O=C1CCCC2=C1C(c1ccco1)Nc1ccc(C(=O)c3ccccc3)cc1N2 (stereo unspecified) | 16500 |
| CN(C)c1ccc(-c2ccnc3c2CC(C)(C(=O)NCc2ccccc2)O3)cc1 (stereo unspecified) | 5530 |
| COc1cc2c(cc1OC)C(c1cccs1)N(C(=O)c1ccncc1)CC2 (stereo unspecified) | 3030 |
| CCCC(=O)Nc1nc2ccc(NC(=O)c3c(F)c(F)c(OC)c(F)c3F)cc2s1 | 974 |
| O=C(/C=C/c1cccc([N+](=O)[O-])c1)c1ccc2c(c1)OCCO2 | 3330 |
| O=c1c2ccccc2sc2c(CO)ccc(NCCN3CCCCC3)c12 | 705 |
| CCCCOc1ccccc1C1CC(=O)NC2=C1C(=O)CCC2 (stereo unspecified) | 1320 |
| COc1cc(F)ccc1-c1csc(C(NC(C)=O)c2cccc(F)c2)n1 (stereo unspecified) | 206 |
| COc1cccc(CNC(=O)COC(=O)c2ccc(-c3ccc(O)cc3)cc2)c1 | 685 |
